From US6677492B2, “Fluoroether compositions and methods for inhibiting their degradation in the presence of a Lewis acid” (Abbott Laboratories, priority 1997, dated 2004) come the findings set out here.

Type in all cases: physicochemical
Series [1] in a line: Degradation of sevoflurane in ampules, water-spiked studies (109 ppm to 951 ppm), autoclaved. Particulars: ampules in Set A and Set B, autoclaved at 119° C. for three hours. The protocol: Type I clear glass ampules were used to study the effect of various levels of water in inhibiting the degradation of sevoflurane. Approximately 20 mL of sevoflurane and different levels of water ranging from about 109 ppm to about 951 ppm were added to each ampule. The ampules were then sealed. A total of ten ampules were filled with sevoflurane and varying amounts of water. Five of the ampules were included in Set A and the other five ampules were included in Set B. The ampules were then autoclaved at 119° C. for three hours. Samples in Set A were placed on a mechanical shaker overnight to allow the moisture to coat the glass surface. Samples in Set B were prepared without equilibrating the water with the glass surface. Several control samples were also prepared. Two non-autoclaved ampules (Control Ampule 1 and Control Ampule 2) and a bottle (Control bottle) were each filled with 20 mL of sevoflurane. No water was added to any of the control samples. Also, the controls samples were not shaken overnight. The levels of hexafluoroisopropanol (HFIP) and total degradants (including methyleneglycol bishexafluoroisopropyl ether, dimethyleneglycol bishexafluoroisopropyl ether, methyleneglycol fluoromethyl hexafluoro isopropyl ether) were measured by gas chromatography.

Series [2] in a line: Degradation of sevoflurane in ampules by heat with and without added water. The following applies: Type I clear ampule autoclaved at 119° C. for three hours. On the procedure:
Approximately 20 mL of sevoflurane was added to a 50 mL Type I clear ampule and approximately 20 mL of sevoflurane and 1300 ppm of water was added to a second ampule. Both ampules were flame-sealed and then autoclaved at 119° C. for three hours. The contents of the two ampules were then analyzed by gas chromatography.

The nature of series [3]: Degradation of sevoflurane with activated alumina at three moisture levels, gas chromatography. The following applies: 50 mg aluminum oxide; 20, 100, 260 ppm water; 60° C., 22 hours; FIG. 1. On the procedure: Type III glass consists mainly of silicon dioxide, calcium oxide, sodium oxide and aluminum oxide. Aluminum oxide is a known Lewis acid The glass matrix is normally inert to sevoflurane. However, under certain conditions (anhydrous, acidic), the glass surface can be attacked or altered, exposing sevoflurane to active Lewis acid sites such as aluminum oxide.
The effect of water on the degradation of sevoflurane was studied by adding various amounts of activated alumina to 20 ml of sevoflurane containing the following three levels of moisture: 1) 20 ppm water—measured water, no additional water added; 2) 100 ppm—spiked; and 3) 260 ppm water—spiked.
It will be appreciated that 20 ppm Water is equivalent to […] w/w Water. The samples were placed at 60° C. and analyzed by gas chromatography after 22 hours.

Series [4] is described as follows: Sevoflurane degradation in activated Type III amber glass bottles, 20 ppm vs 400 ppm water. The protocol:
The extent of the degradation of sevoflurane in each of the bottles from Example 5 were quantified by gas chromatography. The ten bottles were divided into two groups, the Control Sevo Group (containing bottles 2, 3, 5, 7, 8) and the Study Sevo Group (containing Bottles 1, 4, 6, 9, 10).
All ten bottles were re-rinsed several times with non-degraded sevoflurane containing about 20 ppm of water. For the five Control Sevo Group bottles, 100 mL of sevoflurane containing about 20 ppm of water was added to each bottle. For the five Study Group bottles, 100 mL of sevoflurane containing about 400 ppm of water (spiked) was added to each bottle.
Gas chromatography for all samples was performed at time zero and after heating at 50° C. for 18 hours. Hexafluoroisopropyl alcohol (HFIP), dimethyleneglycol bishexafluoroisopropyl ether (P2) and total degradants were measured.

A short description of series [5]: Degradation of water-spiked sevoflurane in ampules at 60° C. or 40° C. The protocol:
Type I clear glass ampules were employed to study the effect of various levels of water and temperature in inhibiting the degradation of sevoflurane. Approximately 20 mL of sevoflurane and different levels of water ranging from about 109 ppm to about 951 ppm were added to each ampule. The ampules were then flame-sealed. To accelerate the degradation process, samples from each moisture level were placed at two heating conditions. Samples were placed on 60° C. stability station for 144 hours or placed on a 40° C. stability station for 200 hours. The resulting sevoflurane in each of the samples was analyzed by gas chromatography and pH. Hexafluoroisopropyl alcohol (HFIP) and the total degradants of sevoflurane were measured.

The nature of series [6]: Sevoflurane degradation in activated Type III amber glass bottles pre-treated with water-saturated sevoflurane. Particulars: activated glass surface treated with water saturated-sevoflurane prior to heating. On the procedure:
Sevoflurane was decanted from the five bottles of the Study Sevo Group from Example 6. Each bottle was rinsed thoroughly with fresh sevoflurane. Approximately 125 mL of water-saturated sevoflurane was then put into each bottle. The five bottles were then placed on a mechanical roller for approximately two hours to allow the water to coat the activated glass surfaces. The water-saturated sevoflurane was then drained form each bottle and replaced by 100 mL of sevoflurane containing 400 (spiked) ppm of water. Gas chromatography analysis for all samples was performed after heating at 50° C. for 18 hours, 36 hours, and 178 hours. bishexafluoroisopropyl ether (P2) and total degradants were measured.

`FCOC(C(F)(F)F)C(F)(F)F` [sevoflurane, fluoromethyl-2,2,2-trifluoro-1-(trifuoromethyl)ethyl ether]: the “water sufficient to inhibit the degradation of sevoflurane” value in series [1] is reported as “at least 595 ppm”. The degradation of sevoflurane entry is recorded as “degraded” in series [2] (first ampule, no water added, FIG. 2); “did not degrade” in series [2] (second ampule, 1300 ppm of water, FIG. 3); “decreases with increasing amounts of water” in series [3]; “significantly reduced” in series [4] (Study Sevo Group (400 ppm water), 50° C. for 18 hours); “no significant degradation” in series [4] (zero hour, compared to zero-hour results in Table 4); “greatly inhibited” in series [6]. In series [4] (Study Sevo Group (400 ppm water)), the HFIP concentration result was “quite high”. Further, the “amounts of degradants P2 and S1” value in series [4] (Study Sevo Group (400 ppm water) compared with Control Group (20 ppm water)) was “much less”. Also, the “degradation of sevoflurane (degradant S1)” value in series [4] (addition of 400 ppm of water, activated amber glass bottles, Examples 5 and 6, FIG. 5) is “inhibited”. The “degradation of sevoflurane (degradant P2)” value in series [4] (addition of 400 ppm of water, activated type III amber glass bottles, Examples 5 and 6, FIG. 4) was “inhibited”. Moreover, the entries for the “water levels that inhibit degradation of sevoflurane” value in series [5] (40° C. for 200 hours) and in series [5] (60° C. for 144 hours or longer) were “higher than 206 ppm” and “higher than 303 ppm”, respectively.
